The text below walks through data of ChEMBL document CHEMBL3638506, “Conjugated 3-(indolyl)- and 3-(azaindolyl)-4-arylmaleimide compounds and their use in tumor treatment” (2015).

The target in the experiment is Glycogen synthase kinase-3 beta (Homo sapiens, UniProt P49841). Put plainly: Kinase Assay: The effect of test compounds on the activity of the protein kinases GSK-3β, VEGFR-2 and FLT-3 was evaluated based on half maximal inhibitory concentration (IC50) values determined by Millipore UK Ltd; Gemini Crescent; Dundee Technology Park; Dundee DD2 1SW; UK (IC50Profiler). Detailed protocols can be found at: www.millipore.com/drugdiscovery/dd3/assayprotocols.

Each structure is given as a SMILES string.

Sequence of Glycogen synthase kinase-3 beta (P49841 whole entry): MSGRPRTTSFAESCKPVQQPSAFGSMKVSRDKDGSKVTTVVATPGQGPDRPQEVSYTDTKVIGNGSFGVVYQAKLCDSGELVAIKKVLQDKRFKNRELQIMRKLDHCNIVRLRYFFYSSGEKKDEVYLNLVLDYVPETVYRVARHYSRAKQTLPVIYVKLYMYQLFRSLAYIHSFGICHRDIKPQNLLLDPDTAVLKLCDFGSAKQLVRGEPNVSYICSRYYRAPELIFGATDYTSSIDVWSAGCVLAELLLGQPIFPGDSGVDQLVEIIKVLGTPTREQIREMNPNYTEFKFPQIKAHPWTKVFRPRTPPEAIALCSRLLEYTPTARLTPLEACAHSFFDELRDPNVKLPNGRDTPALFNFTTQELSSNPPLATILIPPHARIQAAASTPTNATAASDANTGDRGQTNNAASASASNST

A word on the IC50: it is the concentration that gives 50% inhibition. Read a high IC50 as weaker potency. For `COc1cc(C2=C(c3cn(CCCO)c4ccccc34)C(=O)NC2=O)cc(OC)c1OC`, the half-inhibitory concentration (IC50) stood at 3.39 µM. In other words, the single-digit micromolar range.
